Measurements as given in PMC5234776, “Study of the Antimicrobial Activity of Tilapia Piscidin 3 (TP3) and TP4 and Their Effects on Immune Functions in Hybrid Tilapia (Oreochromis spp.)” (PLoS ONE, 2017).
In brackets after ≈: the same amount, converted by molar mass. Peptide text beside a SMILES is read from it.

Key:
[1] = tested on: IL-1β, IL-6, IL-8, Mcp-8, β-defensin; assay: qPCR of immune-related gene expression in tilapia liver and spleen; format: in vivo, tilapia (Oreochromis spp.); settings: in words; for expression of immune-related genes IL-1β, IL-6, IL-8 and MCP-8: co-treatment or peptide treatment alone; for expression of TP2, TP3, TP4 or β-defensin antimicrobial peptide genes in liver: peptide alone or co-treatment, 3 hours after treatment
Method: Total RNA was isolated from the tilapia by peptide treatment before, concurrent with and after infection as described above. The groups included one that was only injected with V. vulnificus (2×10^5 CFU/fish) and one that was only injected with peptides (20 μg/fish). Samples were collected at 3, 6, 12, 24, and 48 hours after treatment to extract RNA, and the levels of tilapia total RNA obtained from the liver and spleen were determined with comparative real-time qRT-PCR analysis of all experimental groups. Real-time qRT-PCR was used to detect the levels of IL-1β (GenBank accession no. DQ061114.1), IL-6 (GenBank accession no. XM_005478656), IL-8 (GenBank accession no. NM001279706), Mcp-8 (GenBank accession no. XM_005478749) and β-defensin (GenBank accession no. KF294753). mRNA was isolated and transcribed into complementary first strands (c) according to previously published methods for real-time comparative qPCR to obtain DNA and detect the relative expression levels of each gene. All samples were examined in triplicate using a sample size of five tilapia. The reactions used to analyze gene expression consisted of 0.05 μg of total RNA. Comparative qRT-PCR Mastermix for the SYBR Green kit (Applied Biosystems, Perkin-Elmer) was used for quantification. The total reaction volume was 20 μl; the reactions were run in 96-well plates; and the program consisted of 40 cycles of 3 seconds at 95°C and 20 seconds at 60°C. We added a dissociation thermal start temperature of […] to each experiment to analyze the melting peaks of the generated PCR products. The data from each experiment were expressed as a ratio of the specific target gene expression/β-actin RNA expression. We used t-tests to compare groups, and multiple group comparisons were tested by ANOVA in SPSS software. Differences were defined as significant at P<0.05 (*), <0.01 (**), and <0.001 (***).

V. vulnificus [2] = assay: microbe, parasite or virus in culture; format: cell-based, Vibrio vulnificus; settings: for antimicrobial activity in the pH 2 solution: pH 2, in words
Method: To understand the effects of pH on TP3 or TP4, the reagents were dissolved in ddH2O, 1 M HCl or 1 M NaOH to obtain solutions with different pH values. For the temperature-dependent functional study, the TP3 or TP4 was added to a solution in a water bath (Basic life, model BL3002, Taiwan) and incubated for 60 minutes at different temperatures (40, 60, 80, or 100°C). To evaluate the effects of TP3 and TP4 on pepsin and trypsin function, each peptide was incubated for 10 or 30 minutes with different concentrations of pepsin or trypsin (0.1, 1, or 10 μg/ml), and we determined the MIC values after incubating these solutions with cells at 28°C for 720 minutes, according to a previously described MIC experimental protocol.

V. vulnificus [3] = assay: Tilapia survival, peptide injected after V. vulnificus infection (post-treatment); format: in vivo, tilapia (Oreochromis spp.); settings: seven days
Excerpt: (§1) We obtained tilapia (Oreochromis spp.) from a commercial aquaculture company. The fish body lengths were 4.0±0.6 cm, and body weights were 3.1±0.3 g. The tilapia were maintained in a 2000 liter indoor aquarium at the Marine Research Station, Ilan, Taiwan. To study the efficacy with which TP3 and TP4 protect tilapia against V. vulnificus, we injected the bacteria into the abdominal cavities (peritoneum) of the tilapia using a syringe (29 Gx1/2, Terumo Medical, Elkton, MD, USA); control tilapia were injected with PBS-buffered saline. For the first trial in each group, we used 15 tilapia: (a) group 1 was injected with V. vulnificus (2×10^5 CFU/fish) only; (b) group 2 was injected with PBS only; and (c) group 3 was injected with bacterial cells (2×10^5 CFU/fish) combined with a mixture containing both TP3 and TP4 peptides (at 0.1, 1, 10, or 20 μg/fish) that had been incubated for 60 minutes at 28°C. Next, at 168 hours after the first injection, the tilapia that survived the first co-treatment were again injected with V. vulnificus (2×10^5 CFU/fish). For this second challenge, we chose tilapia with similar body weights and ages that had not been previously treated with V. vulnificus, TP3 or TP4 for the V. vulnificus-only group (control group), and we recorded the survival rate over seven days. For the third trial, each group contained 15 tilapia, each of which was injected with 20, 30, or 40 μg of TP3 or TP4 followed by V. vulnificus (2×10^5 CFU/fish) after 0.5, 1, or 2 hours. The survival rate was recorded after seven days. For the fourth trial, each group contained 15 tilapia, each of which was first injected with V. vulnificus (2×10^5 CFU/fish) and then with 20, 30, or 40 μg of TP3 or TP4 after 0.5, 1, or 2 hours; the survival rate was recorded over seven days. Each experimental group consisted of 15 fish per treatment and three replicates (triplicate groups of 15 fish per treatment). We performed multiple group comparisons by analysis of variance (ANOVA) using SPSS software, and pairwise comparisons of groups were performed using a t-test. Significant differences were indicated as *P<0.05 and **P<0.01.

V. vulnificus [4] = assay: Tilapia survival, re-challenge of co-treatment survivors with V. vulnificus; format: in vivo, tilapia (Oreochromis spp.); settings: survivors of 20 μg/fish co-treatment, followed seven days
Excerpt: as §1
The antimicrobial activities of TP3 and TP4 peptides were analyzed in tilapia infected with lethal amounts of bacteria. Different amounts of V. vulnificus were injected into the abdominal cavities of the fish, and survival rates were recorded as cumulative percentages (S1 Fig). To determine whether TP3 and TP4 had any toxic effects on the tilapia, we injected different doses of TP3 and TP4 (0.1, 1, 10, 20, 30, 40, or 50 μg/fish) into the abdominal cavity and recorded the cumulative survival percentage of the fish (S2 Fig). We also co-treated tilapia with different doses (0.1, 1, 10, 20 μg/fish) of TP3 or TP4 combined with 2x10^4 CFU of V. vulnificus to evaluate tilapia survival following treatment. […] After 14, 21, or 28 days following the first co-treatment with TP3, the tilapia that survived in the 20 μg/fish TP3 experimental group were injected with a second dose of 2x10^4 CFU of V. vulnificus, and the survival rates were measured for another seven days. […] In the co-treatment experiments, at 14, 21, or 28 days after the first co-treatment with TP4, the surviving tilapia in the 20 μg/fish TP4 experimental group received a second injection of 2x10^4 CFU of V. vulnificus, and the survival rates were measured for another seven days.

[5] = peptide 20 μg/fish 0.5 hours after V. vulnificus
[6] = peptide 20 μg/fish 1 hour after V. vulnificus
[7] = peptide 20 μg/fish 2 hours after V. vulnificus
[8] = peptide 30 μg/fish 0.5 hours after V. vulnificus
[9] = peptide 30 μg/fish 1 hour after V. vulnificus
[10] = peptide 30 μg/fish 2 hours after V. vulnificus
[11] = peptide 40 μg/fish 0.5 hours after V. vulnificus
[12] = peptide 40 μg/fish 1 hour after V. vulnificus
[13] = peptide 40 μg/fish 2 hours after V. vulnificus

Structure (SMILES)	expression of immune-related genes IL-1β, IL-6, IL-8 and MCP-8 [1]	IL-1β, IL-6, IL-8 and Mcp-8 expression in spleen ([1]; peptide alone or co-injected with V. vulnificus, 12 hours after treatment)	expression of TP2, TP3, TP4 or β-defensin antimicrobial peptide genes in liver [1]	antimicrobial activity in the pH 2 solution (V. vulnificus [2])	MBC (V. vulnificus [2]; pH 7) [µg/mL]	MIC (V. vulnificus [2]; pH 7) [µg/mL]	survival rate (V. vulnificus [3]; [5]) [%]	survival rate (V. vulnificus [3]; [6]) [%]	survival rate (V. vulnificus [3]; [7]) [%]	survival rate (V. vulnificus [3]; [8]) [%]	survival rate (V. vulnificus [3]; [9]) [%]	survival rate (V. vulnificus [3]; [10]) [%]	survival rate (V. vulnificus [3]; [11]) [%]	survival rate (V. vulnificus [3]; [12]) [%]	survival rate (V. vulnificus [3]; [13]) [%]	survival rate after second injection of V. vulnificus (V. vulnificus [4]; re-challenged after 14 days) [%]	survival rate after second injection of V. vulnificus (V. vulnificus [4]; re-challenged after 21 days) [%]	survival rate after second injection of V. vulnificus (V. vulnificus [4]; re-challenged after 28 days) [%]	IL-1β, IL-6, IL-8, Mcp-8 and β-defensin gene expression in liver ([1]; pre-treatment and post-treatment groups, three hours after infection with V. vulnificus)	IL-1β, IL-6, IL-8 and β-defensin gene expression in spleen ([1]; pre-treatment and post-treatment, three hours after infection)
CC[C@H](C)[C@H](NC(=O)[C@H](C)NC(=O)[C@H](CCCCN)NC(=O)CNC(=O)[C@H](C)NC(=O)[C@H](CO)NC(=O)[C@H](Cc1ccccc1)NC(=O)[C@H](CC(C)C)NC(=O)CNC(=O)CNC(=O)[C@@H](NC(=O)[C@@H](NC(=O)[C@H](Cc1c[nH]cn1)NC(=O)[C@H](Cc1c[nH]cn1)NC(=O)[C@@H](NC(=O)[C@@H](N)Cc1ccccc1)[C@@H](C)CC)[C@@H](C)CC)[C@@H](C)CC)C(=O)N[C@@H](Cc1c[nH]cn1)C(=O)N[C@@H](CCCNC(=N)N)C(=O)N[C@@H](CC(C)C)C(=O)N[C@H](C(=O)N[C@@H](CCCNC(=N)N)C(=O)N[C@@H](CCCNC(=N)N)C(=O)N[C@@H](CCCNC(=N)N)C(=O)N[C@@H](CCCNC(=N)N)C(=O)N[C@@H](CCCNC(=N)N)C(=O)O)[C@@H](C)CC [TP4, tilapia piscidin 4] (H-FIHHIIGGLFSAGKAIHRLIRRRRR-OH)	down-regulation	lower	down-regulated	Neither the antibiotics nor TP3 and TP4 showed any antimicrobial activity	7.8 (≈ 2.62 µM)	7.8 (≈ 2.62 µM)	48.9	22.2	4	40	20	0	2.2	4.4	6.7	17.8	37.8	42.2	–	–
CC[C@H](C)[C@H](NC(=O)[C@H](CC(C)C)NC(=O)[C@H](CO)NC(=O)[C@H](Cc1c[nH]cn1)NC(=O)[C@@H](NC(=O)[C@H](Cc1c[nH]cn1)NC(=O)[C@H](CCCCN)NC(=O)CNC(=O)[C@@H](NC(=O)[C@H](CO)NC(=O)[C@H](Cc1ccccc1)NC(=O)[C@H](CC(C)C)NC(=O)CNC(=O)CNC(=O)[C@@H](NC(=O)[C@@H](NC(=O)[C@H](Cc1c[nH]cn1)NC(=O)[C@H](Cc1c[nH]cn1)NC(=O)[C@@H](NC(=O)[C@@H](N)Cc1ccccc1)[C@@H](C)CC)[C@@H](C)CC)[C@@H](C)CC)C(C)C)[C@@H](C)CC)C(=O)N[C@@H](Cc1c[nH]cn1)C(=O)NCC(=O)N[C@@H](Cc1c[nH]cn1)C(=O)O [TP3, tilapia piscidin 3] (H-FIHHIIGGLFSVGKHIHSLIHGH-OH)	down-regulation	–	down-regulated	Neither the antibiotics nor TP3 and TP4 showed any antimicrobial activity	62.5 (≈ 24.4 µM)	–	33.3	20	0	33.3	15.5	4.5	24.4	8.9	0	17.8	26.7	35.6	significantly higher levels	significant increase
